{"source": "patent US10328092B2", "about": "“Methods and compositions for treatment of drug addiction” (The Royal Institution for the Advancement of Learning / …, priority 2015, dated 2019)", "key": {"[1]": {"experiment": "Sickness behavior in vivo"}, "TNFα": {"system": "TNFα", "experiment": "TNFα mRNA / protein in ventral striatum (NAc) after in vivo treatment", "design": "species or system mouse", "conditions": "for TNFα mRNA in the ventral striatum: single injection of MPLA 10 μg", "method": "To determine the effect of in vivo cocaine exposure on TNFα levels in the ventral striatum, TNFα mRNA and protein levels were measured in mice given intraperitoneal injections of saline or cocaine. […] To understand the impact of TNFα on synaptic function in the NAc, AMPA/NMDA ratios were measured at glutamatergic synapses on MSNs in the NAc core. Alteration in NAc core AMPA receptors are involved in the expression of behavioral sensitization to psychostimulants (Kalives, 2009).\nMice (8-10 weeks) were perfused and their brains submerged overnight in 4% PFA, cryoprotected with 30% sucrose, and cut in 30 μm thick coronal slices using a cryostat. The sections were incubated for 4 hours with blocking solution (2% normal goat serum, 3% BSA, 0.2% Triton X-100 in PBS) before incubation overnight at 4 C with primary antibodies in blocking solution (rabbit anti-Iba1 antibody [019-19741, Wako; 1:800; RRID: AB_2566825], chicken anti-GFAP antibody [AB5541, Millipore; 1:500; RRID: AB_177521], rabbit anti-NeuN [ab104225, Abcam, 1:400; RRID: AB_10711153], and rabbit anti-TNFα antibody [ab6671, Abcam, 1:100; RRID: AB_305641] or mouse anti-TNFα antibody [ab1793, Abcam, 1:100; RRID: AB_302615]). Sections were washed (2×15 min with PBST [0.05% Tween20] and 1×15 min with PBS at RT) and incubated for 2 hrs at room temperature in secondary antibodies (anti-rabbit, anti-chicken, or anti-mouse IgG-conjugated Alexa Fluorochrome [Invitrogen; 1:400]). Sections were washed and briefly (<30 seconds) incubated with Hoechst 33342 [H1399, Molecular Probes; 1:10,000] in PBS. The stained sections were imaged using an Olympus FluoView FV1000 confocal microscope with Fluoview imaging software (FV10-ASW). Images of the ventral striatum (nucleus accumbens core and shell) were acquired with a 40× or 60× objective and stacks of 25-30 optical sections (1 μm per section) of depth were Z-projected into a single window and analysed using ImageJ software (NIH).\nThe number of Iba1+ microglia were manually counted from 212×212 μm (60× objectives) or 317×317 μm (40× objectives) images. TNFα intensity was measured using the mean grey value of the entire image while Iba1 intensity measurements were obtained using a thresholded area to highlight only the microglia. Cell body area (μm^2) was measured based on Iba1 staining and using the freehand selection tool. Additional analysis of microglia morphology in saline and cocaine treated mice was done using IMARIS software (Bitplane). […] The following parameters were analyzed for 40 microglia per group: total process length (sum of length of all processes), total process volume, process diameter and number of branch points and terminals. […]\nAfter 40 cycles, the Ct values were determined."}, "mice [2]": {"system": "mice", "experiment": "Cocaine-induced behavioural sensitization, locomotor response", "type": "in vivo, mouse", "method": "A cocaine induced behavioral sensitization animal model of drug addiction was used. Sensitization refers to the augmentation of behavioral responses to drugs of abuse that occurs during their repeated administration and persists long after drug exposure is discontinued. In this paradigm mice are injected with 15 mg/kg cocaine and put in an open field box and measure the cocaine stimulatory effects on locomotor for 15 min. After the first run mice are injected with 10 ug of MPL and returned to their home cage.\nThe response of mice to repeated doses of cocaine was compared. After habituating animals to handling, the animals receive an IP injection and have their locomotor activity monitored in open-field chambers using Ethovision software for 15 min. After two days of saline injections, mice received five daily injections of cocaine (15 mg/kg) and assayed for locomotion. Following 7-10 days without injections (withdrawal), mice receive a challenge dose of cocaine (also 15 mg/kg) and locomotor activity again assessed (see Examples 1 and 2). A minimum of three separate cohorts have been run.\n(§1) Locomotion was monitored in 30×30 cm plexiglass boxes by the EthoVision video-tracking system (Noldus) and performed near the end of the light phase of the light-dark cycle under dim red light. After habituating animals to handling, mice received IP injections of saline or cocaine and their activity was recorded for 15 min. Mice were tested during habituation to injection and the activity boxes (saline; days 1-2) and 5 repeated cocaine injections (15 mg/kg; days 3-7). Following 10 days without injections (withdrawal), mice receive a challenge dose of cocaine (15 mg/kg) and locomotor activity again assessed (day 17). Total distance traveled and stereotypy were evaluated from video by EthoVision. For stereotypy, the frequency of which the mouse stops moving (#pauses/min) was measured using a threshold start velocity of 2.00/second and a threshold stop velocity of 0 cm/s. The number of turns per minute (# turns/min) was measured by calculating the frequency for which the path of the mouse turns over a minimum distance of 3.00 cm. Velocity was assessed as the mean distance traveled (cm) over time (s).\nMice were treated for […] with saline (1,2), then 5 consecutive days with 15 mg/kg cocaine (3-7). Animals then underwent a 9 day withdrawal period from cocaine. On day 9, they received an injection of saline or 50 μg/kg of LPS. 24 hours later, the mice were retested for the locomotor response in terms of distance (cm) traveled in 15 minutes."}, "mice [3]": {"system": "mice", "experiment": "Basal locomotion", "type": "in vivo, mouse", "method": "To determine whether the low TNFα response induced by MPLA can affect the behavioural response to cocaine, it was first assessed if MPLA can alter the basal locomotion of mice. Mice were injected with 10 ug of MPLA, and tested 24 hrs later. No difference in basal locomotion was observed (n=4), compared with saline injected control mice (FIG. 2).\nas §1, with “Mice were tested during habituation to injection and the activity boxes (saline; days 1-2) and 5 repeated cocaine injections (15 mg/kg; days 3-7).” left out"}}, "data": [{"substance": "monophosphoryl lipid A [MPLA]", "values": [{"measurement": "sickness behavior", "setting": "[1]", "result": "without inducing sickness behavior"}, {"measurement": "TNF-α levels in vivo, lower than LPS", "setting": "TNFα; compared with LPS", "result": 10, "unit": "fold"}, {"measurement": "TNFα mRNA in the ventral striatum", "setting": "TNFα; 4 hours", "result": "significantly increases"}, {"measurement": "TNFα mRNA in the ventral striatum", "setting": "TNFα; 24 hours", "result": "significantly increases"}, {"measurement": "initial response to cocaine challenge dose", "setting": "mice [2]; 7 daily saline injections, 9 days abstinence, MPLA 10 μg, cocaine 15 mg/kg next day", "result": "did not alter"}, {"measurement": "locomotor response to a challenge dose of cocaine", "setting": "mice [2]; TNFα−/− mice, MPLA 10 μg", "result": "did not reduce"}, {"measurement": "behavioral sensitization to cocaine", "setting": "mice [2]; TNFα−/− mice, MPLA 10 ug IP after first cocaine 15 mg/kg, re-tested one day later", "result": "no effect"}, {"measurement": "behavioral response to cocaine", "setting": "mice [2]; WT mice, 10 days withdrawal, single MPLA 10 μg, tested 4 days later", "result": "did not reduce"}, {"measurement": "behavioral (locomotor) response to cocaine challenge", "setting": "mice [2]; wildtype mice after withdrawal, MPLA 10 μg or 50 μg, tested 24 hours later, cocaine 15 mg/kg", "result": "dose dependently reduced"}, {"measurement": "behavioral sensitization to cocaine vs saline treated mice", "setting": "mice [2]; wildtype mice, MPLA 10 ug IP after first cocaine 15 mg/kg, re-tested 24 hours later", "result": "reduced"}, {"measurement": "basal locomotion, distance", "setting": "mice [3]; 24 hours after IP injection of 10 μg MPLA", "result": "5415±378", "unit": "cm"}, {"measurement": "basal locomotion vs saline injected mice", "setting": "mice [3]; 24 hours after i.p. injection of 10 μg MPLA", "result": "No significant differences"}]}]}
